Test systems include HOP-62 NSCLC; UACC-62 melanoma; SN12C renal; SK-MEL-2 melanoma; SF-295 CNS; SW-620 colon; NCI-H460 lung; A549 NSCLC; SNB-75 CNS; HS 578T breast.
Test in all cases: NCI tumour cell line growth inhibition, 48 h

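A five-concentration, 48-hour dose response in 96-well plates underlies each endpoint, interpolated linearly between surrounding concentrations. TGI marks complete inhibition of growth.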 *1 amine or outer side, *2 acyl side, *3 side chain or, on linkers, in order; H or OH if unused. Where a SMILES comes first, the peptide text is derived from it. Bridges are numbered along the chain shown (N, C = ends). Roman numbers before positions name the chains, in order. [ ]: non-standard residue; d: D form. Actinocin(9to1) = Cc1c2oc3c(C)ccc(C(=O)[*:1])c3nc-2c(C(=O)[*:2])c(N)c1=O; NMeV = CN[CH](C(=O)O)C(C)C; Sar = CNCC(=O)O Some results are limits rather than exact numbers.

With `Oc1ccc(SCc2cc(O)c(O)c(O)c2)cc1`, the TGI in the assay with HOP-62 NSCLC is 56.4 µM; in the assay with UACC-62 melanoma it was 41.4 µM; in the assay with SN12C renal, 74.9 µM; in the assay with SK-MEL-2 melanoma it was greater than 100 µM; with SF-295 CNS, 29.8 µM; in the assay with SW-620 colon, greater than 100 µM. Moreover, the TGI is 36.7 µM with NCI-H460 lung, greater than 100 µM in the assay on A549 NSCLC, greater than 100 µM with SNB-75 CNS and greater than 100 µM in the assay with HS 578T breast.
For the compound `CCCCCCCCCCCCCCCCCCNc1ccn(C2OC(COP(=O)(O)OCC3OC(n4cc(C)c(=O)[nH]c4=O)CC3N=[N+]=[N-])C(O)C2O)c(=O)n1` (stereo not given), the TGI turned out to be 45 µM in the assay on HOP-62 NSCLC; 36.4 µM in the assay on UACC-62 melanoma; 48.1 µM with SN12C renal; 39.8 µM with SK-MEL-2 melanoma; 32.6 µM in the assay on SF-295 CNS; 58.8 µM in the assay with SW-620 colon. Further, the TGI with NCI-H460 lung is 36.6 µM; in the assay on A549 NSCLC, greater than 100 µM; with SNB-75 CNS, 58.5 µM; in the assay on HS 578T breast, 49.8 µM.
Consider `Cc1ccc(N2CCc3c(C)c(C#N)c4nc5ccccc5n4c32)cc1`, for which the TGI with HOP-62 NSCLC, with UACC-62 melanoma, with SN12C renal, with SK-MEL-2 melanoma, with SF-295 CNS and in the assay with SW-620 colon was greater than 100 µM each time. The TGI is greater than 100 µM in the assay on NCI-H460 lung, greater than 100 µM in the assay with A549 NSCLC, 62 µM in the assay with SNB-75 CNS and 48.3 µM with HS 578T breast.
On to `O=c1c(C=Nc2ccc([N+](=O)[O-])cc2)c(O)n(-c2ccccc2)c(=O)n1-c1ccccc1`, for which the TGI with HOP-62 NSCLC, in the assay on UACC-62 melanoma, with SN12C renal, with SK-MEL-2 melanoma, in the assay on SF-295 CNS and in the assay on SW-620 colon was greater than 100 µM in each case. The TGI in the assay with NCI-H460 lung, in the assay with A549 NSCLC, in the assay with SNB-75 CNS and with HS 578T breast was greater than 100 µM throughout.
Consider `O=c1[nH]c(=O)n(Cc2ccccc2CO)cc1Sc1ccccc1`, for which the TGI was greater than 100 µM in the assay with HOP-62 NSCLC; greater than 100 µM in the assay on UACC-62 melanoma; greater than 100 µM with SN12C renal; 45.8 µM in the assay with SK-MEL-2 melanoma; greater than 100 µM with SF-295 CNS; greater than 100 µM with SW-620 colon. The TGI is greater than 100 µM with NCI-H460 lung, 43.2 µM in the assay on A549 NSCLC, greater than 100 µM in the assay on SNB-75 CNS and 60.6 µM in the assay with HS 578T breast.
For `Cc1cc(-c2nc3ccccc3s2)ccc1NC(=O)[C@H](C)N`, the TGI came out at 28.3 µM in the assay on HOP-62 NSCLC; 29.1 µM in the assay on UACC-62 melanoma; 27.9 µM with SN12C renal; 34.3 µM with SK-MEL-2 melanoma; 29.3 µM in the assay with SF-295 CNS; 29 µM with SW-620 colon. For the same compound, the TGI with NCI-H460 lung came to 25.6 µM; in the assay with A549 NSCLC it was 27.3 µM; in the assay on SNB-75 CNS, 26.1 µM; in the assay with HS 578T breast it was 74.4 µM.
On to `CSC1=C(C#N)C(=O)N(c2ccc(C)cc2)C(=S)C1C#N` (stereo not given), for which the TGI with HOP-62 NSCLC, in the assay on UACC-62 melanoma, with SN12C renal, in the assay with SK-MEL-2 melanoma, in the assay with SF-295 CNS and with SW-620 colon was greater than 100 µM each time. Moreover, the TGI with NCI-H460 lung, in the assay with A549 NSCLC, with SNB-75 CNS and in the assay with HS 578T breast was greater than 100 µM in each case.
Regarding `O=C(OCc1ccccc1)C1(N2CN(C3(C(=O)OCc4ccccc4)CCCC3)CN(C3(C(=O)OCc4ccccc4)CCCC3)C2)CCCC1`, the TGI in the assay on HOP-62 NSCLC, in the assay with UACC-62 melanoma, in the assay on SN12C renal, with SK-MEL-2 melanoma, in the assay on SF-295 CNS and in the assay on SW-620 colon was greater than 10 µM each time. For the same compound, the TGI in the assay on NCI-H460 lung, with A549 NSCLC, in the assay with SNB-75 CNS and with HS 578T breast was greater than 10 µM throughout.
For `Cc1[nH]c2ccccc2c1C=Nc1ccc(N=Cc2c(C)[nH]c3ccccc23)cc1`, the TGI with HOP-62 NSCLC was greater than 100 µM; with UACC-62 melanoma, greater than 100 µM; in the assay on SN12C renal, greater than 100 µM; in the assay with SK-MEL-2 melanoma it was 57.2 µM; in the assay with SF-295 CNS it was greater than 100 µM; with SW-620 colon, 70.2 µM. Further, the TGI in the assay on NCI-H460 lung, with A549 NSCLC, in the assay on SNB-75 CNS and in the assay with HS 578T breast was greater than 100 µM in each case.
`COc1ccc2c(c1)N=C1CSC(c3ccccc3Cl)N1C2` (stereo not given): the TGI is 34.5 µM with HOP-62 NSCLC; 20.3 µM in the assay with UACC-62 melanoma; 37.5 µM in the assay on SN12C renal; 30.3 µM in the assay with SK-MEL-2 melanoma; 42.4 µM with SF-295 CNS; 39.5 µM with SW-620 colon. The TGI is 15.4 µM in the assay with NCI-H460 lung, 31.9 µM in the assay on A549 NSCLC, 40.6 µM in the assay on SNB-75 CNS and greater than 100 µM in the assay on HS 578T breast.
Turning to `NC(=O)c1ccc2c(c1)S(=O)(=O)c1ccccc1C2=O`, the TGI in the assay on HOP-62 NSCLC, in the assay on UACC-62 melanoma, with SN12C renal, in the assay with SK-MEL-2 melanoma, in the assay on SF-295 CNS and in the assay with SW-620 colon was greater than 100 µM in each case. For the same compound, the TGI with NCI-H460 lung, in the assay with A549 NSCLC, with SNB-75 CNS and in the assay with HS 578T breast was greater than 100 µM each time.
In the case of `C(=C\c1ccccc1)/C=N/c1nc2cc3sc(/N=C/C=C/c4ccccc4)nc3cc2s1`, the TGI with HOP-62 NSCLC, in the assay on UACC-62 melanoma, with SN12C renal, in the assay with SK-MEL-2 melanoma, in the assay on SF-295 CNS and with SW-620 colon was greater than 100 µM throughout. Also, the TGI with NCI-H460 lung, in the assay with A549 NSCLC, in the assay on SNB-75 CNS and in the assay on HS 578T breast was greater than 100 µM in each case.
As for `Cc1c2oc3c(C)ccc(C(=O)NC4C(=O)NC(C(C)O)C(=O)N5CCCC5C(=O)N(C)CC(=O)N(C)C(C(C)C)C(=O)OC4C)c3nc-2c(C(=O)NC2C(=O)NC(C(C)O)C(=O)N3CCCC3C(=O)N(C)CC(=O)N(C)C(C(C)C)C(=O)OC2C)c(N)c1=O` (stereo not given) (I: TTP[Sar][NMeV] / II: TTP[Sar][NMeV]; ester I:1-I:C, II:1-II:C; linker I:N-II:N via Actinocin(9to1); configuration not given here), the TGI in the assay on HOP-62 NSCLC is 10 µM; in the assay on UACC-62 melanoma it was 0.528 µM; with SN12C renal it was greater than 100 µM; in the assay with SK-MEL-2 melanoma, 1.03 µM; in the assay on SF-295 CNS it was greater than 100 µM; with SW-620 colon, greater than 100 µM. Also, the TGI in the assay with NCI-H460 lung was greater than 100 µM; in the assay on A549 NSCLC, 32.1 µM; in the assay on SNB-75 CNS, 1.95 µM; with HS 578T breast, 72 µM.

Values taken from PubChem BioAssay (NCI).
